Laboratory results reported in patent US11071727B2, “Therapeutic targeting of proteolytic cleavage of the mixed lineage leukemia gene product (MLL1) by taspase1 using kinase inhibitors” (Northwestern University, priority 2018, dated 2021).

Columns and labels:
MLL1 chromatin occupancy = test: ChIP-seq of MLL1 occupancy in 293T cells; type: cell-based, human; conditions: relative to DMSO control
Procedure: (§1) FIG. 6. CKII inhibition increases genome-wide MLL occupancy and excludes SEC recruitment in MLL leukemia cells. (A) and (B) MLL1C occupancy in CX-4945 or TTP22 treated cells were shown relative to DMSO control. […] (C) Track examples of the MLL1 occupancy at the promoter regions of ELF2 and C6orf211. (D) CX-4945 inhibition of leukemia cell proliferation. Multiple MLL leukemia (orange lines) and non-MLL leukemia (blue lines) were cultured with different doses of CX-4945 for 3 days. Cell number was determined by cell counter and normalized to DMSO control. (E) SEM cells were treated with 0, 5 or 10 μM of CX-4945 for 30 hours and western blot was performed to determine the MLL1 full-length protein levels and MLL-AF4 fusion protein levels. (F) MLL-AFF1, AFF4 and ELL2 occupancies were decreased by CX-4945 treatment in SEM cells.
ChIP-seq Analysis. 5×10^7 cells were used for each ChIP assay, as performed as previously described (Chen et al. 2015). Peaks were called with MACS v1.4.2 (Zhang et al. 2008) using default parameters and were annotated by the HOMER software (Heinz et al. 2010). Metaplots were generated using ngsplot (Shen et al. 2014). […] Differential occupancy of MLL1 was evaluated by edgeR, and peaks with Benjamini-Hochburg adjusted p-values less than 0.05 were considered to be differentially occupied. […]

[1] = tested on: MLL leukemia and non-MLL leukemia cells; test: Leukemia cell proliferation by cell counting; type: cell-based, human; conditions: panel of MLL and non-MLL leukemia cell lines, increasing concentrations, 3 days
Procedure: as §1
Cell culture. All of the cell lines were purchased from the American Type Culture Collection (Rockville, Md.). 293T, MCF7 and HCT116 cell lines were maintained in Dulbecco's modified Eagle's medium (DMEM) (Gibco, Gaithersburg, Md.) supplemented with 10% fetal bovine serum (FBS) (Gibco) at 37° with 5% CO2. SEM was maintained in IMDM with 10% FBS. […]
Cell Proliferation Assay. Cell proliferation was measured by cell counting using the Vi-CELL™ Cell Counter (Beckman Coulter Life Sciences, Indianapolis, Ind.). […]

MOLM13 cells = test: MOLM13 human leukemia xenograft mouse model; type: in vivo
Procedure: FIG. 7. CKII inhibition delays the leukemia progression and improves survival of MLL-AF9 mice and MOLM13 human leukemia mice. (A) Timeline of the MLL-AF9 leukemia mouse model and CKII inhibitor treatment. Drug treatments were started at day 10 after transplantation. (B) Kaplan-Meier survival curves of secondary transplanted C57BL/6 mice after vehicle and CX-4945 treatment at day 10. Vehicle or CX-4945 (50 mg/kg or 75 mg/kg) were administered twice daily by oral gavage for a total of twenty treatments. Leukemia was confirmed at the endpoint for each transplant mouse. The number (n) indicates the number of mice in each group. The p values were calculated using the log rank test. (C) Timeline of the MOLM13 human leukemia xenograft mice. Drug treatments were started at day 5 after transplantation. (D) Kaplan-Meier survival curves of NSGS mice after vehicle and CX-4945 treatment. Vehicle or CX-4945 (50 mg/kg) were administered twice daily by oral gavage for a total of twenty treatments. Leukemia was confirmed at the endpoint for each transplant mouse by flow cytometry, H&E staining and histology analysis. […] The p value was calculated using the log rank test. […]
MLL Murine Xenograft Transplantation and Treatment. […] Mice were monitored for illness including signs of lethargy, ruffled coat, and/or hind limb paralysis at which time mice were sacrificed for analysis. […]

`O=C(O)c1ccc2c(c1)nc(Nc1cccc(Cl)c1)c1ccncc12` [CX-4945, 5-(3-chlorophenylamino)benzo[c][2,6]naphthyridine-8-carboxylic acid] was tested, and the “MLL1 occupancy (genome-wide)” value (MLL1 chromatin occupancy) was “global increase of MLL1 occupancy”, the “sensitivity of leukemic cell lines (cell number normalized to DMSO)” value [1] was “MLL leukemia cells were generally more sensitive than non-MLL leukemic cells” and the “weight of the mice” value (MOLM13 cells; MOLM13 human leukemia xenograft mouse model, compared with vehicle control group) was “did not affect the weight of the mice”. The leukemia free survival (MOLM13 cells; NSGS mice, 50 mg/kg twice daily by oral gavage for ten days, from day 5) was “significantly lengthened”.
